In one assay the target is VHL (Homo sapiens, UniProt P40337). Put plainly: Fluorescence polarization competitive binding assay. The note with it: for Ki: displacement of FAM-labelled HIF-1α peptide from VCB. The method, then:
FP competitive binding assays were performed following the method described previously (Bond et al, J. Med. Chem. 2021, 64 (20), 15477-15502.). All the measurements were taken on a PHERstar (BMG LABTECH) plate reader installed with a FP filter that sets excitation and emission wavelengths at 485 nm and 520 nM separately. Each well of 384-well plate (Coring 3575) contains 10 nM VCB protein, 5 nM FAM-lableled HIF-1α peptide (FAM-DEALAHyp[…], “JC9”), and decreasing concentrations of PROTACs (14 concentrations with 2-fold serial dilution starting from 250 μM) in FP assay buffer (100 mM Bis-Tris propane, 100 mM NaCl, 1 mM TCEP, pH 7) with a final DMSO concentration of 5%. The control wells containing the VCB and JC9 with no compound are set as the maximum signals (zero displacement). And the control wells containing JC9 in the absence of protein are set as the minimum signals. Control values were used to obtain the percentage of displacement which was graphed against Log [Compound]. Average IC50 values were determined for each titration using nonlinear regression analysis with Prism (v.9.3.1).
Background: Fluorescence polarisation rises when a labelled molecule tumbles more slowly, as on binding a larger partner.

A further assay deals with Rab10 pThr73. Kind of assay: Rab10 Thr73 dephosphorylation (immunoblot) in LRRK2^G2019S MEFs. It counts as cell-based, mouse. The following applies: for inhibition at 1 µM: read-out: pRab10 inhibited in LRRK2^G2019S MEFs; for EC50: dose response, read-out: G2019S MEFs-pRab10-dephosphorylation EC50.
The target in assay [1] is T1, LRRK2^WT (Mus musculus, UniProt Q5S006).
T1 construct: endogenous in cells; host or cells: primary wild-type mouse embryonic fibroblasts (MEFs)
Kind of assay: Western blot LRRK2 degradation in WT MEFs. The note with it: for Dmax on WT MEFs / DC50 / Dmax: dose response; for Dmax: read-out: Dmax on WT MEFs. The format is cell-based. (In general: Immunoblotting shows a protein as a band on a membrane.)

In assay [2] the test system is LRRK2^WT. Kind of assay: Western blot LRRK2 degradation in WT MEFs. The following applies: for LRRK2 degradation (in words): WT MEFs and LRRK2^G2019S MEFs. The format is cell-based, mouse.
[3] abbreviates: Mus musculus, 1 μM/4 h treatment.
Setting [4] is: time course at 300 nM, LRRK2^G2019S MEFs.

A word on the Ki: it is the dissociation constant of the complex between target and ligand, obtained from inhibition or displacement. Higher therefore signals a looser hold on the target. For orientation: EC50 means the concentration that produces a half-maximal response. As a reminder, the DC50 is the midpoint of the concentration-degradation curve.

“Also recorded” adds a separate entry of the source. Where two headings read alike, the source gives them in different places. Bounds are passed on as bounds.

As for `CNc1nc(Nc2ccc(C(=O)N3CCN(C[C@H]4CC[C@H](CSC(C)(C)[C@H](NC(=O)C5(F)CC5)C(=O)N5C[C@@H](O)CC5C(=O)NCc5ccc(-c6scnc6C)cc5)CC4)CC3)cc2OC)ncc1Cl` (stereo partly drawn) [Cis-XL01126, (2S,4S)-1-((R)-3-((((1r,4R)-4-((4-(4-((5-chloro-4-(methylamino)pyrimidin-2-yl)amino)-3-methoxybenzoyl)piperazin-1-yl)methyl)cyclohexyl)methyl)thio)-2-(1-fluorocyclopropane-1-carboxamido)-3-methylbutanoyl)-4-hydroxy-N-(4-(4-methylthiazol-5-yl)benzyl)pyrrolidine-2-carboxamide], the Ki on VHL was greater than 50000 nM. For the same compound, the “binding to VHL (in words)” value on VHL (fluorescence polarization) is “does not bind to VHL E3 ligase; also recorded: did not displace the fluorescent tracer”.

For `CNc1nc(Nc2ccc(C(=O)N3CCN(CCOCCOCCSC(C)(C)[C@H](NC(=O)C4(F)CC4)C(=O)N4C[C@H](O)C[C@H]4C(=O)NCc4ccc(-c5scnc5C)cc4)CC3)cc2OC)ncc1Cl` [SD75, (2S,4R)-1-((R)-3-((2-(2-(2-(4-(4-((5-chloro-4-(methylamino)pyrimidin-2-yl)amino)-3-methoxybenzoyl)piperazin-1-yl)ethoxy)ethoxy)ethyl)thio)-2-(1-fluorocyclopropane-1-carboxamido)-3-methylbutanoyl)-4-hydroxy-N-(4-(4-methylthiazol-5-yl)benzyl)pyrrolidine-2-carboxamide], in the assay on Rab10 pThr73 (setting [3]), the inhibition at 1 µM lay within 30 to 95%. The compound also returned a Dmax at 1 µM in the assay with Rab10 pThr73 (Mus musculus, time course at 1000 nM, LRRK2^G2019S MEFs) of 74%. Moreover, in the assay with Rab10 pThr73 (24 h treatment), the EC50 worked out at 379 nM. In the assay on Rab10 pThr73 (time course at 1000 nM, LRRK2^G2019S MEFs), the “T1/2 of Rab10 dephosphorylation (G2019S)” value was 42 min. Further, the “Dmax on WT MEFs” value on LRRK2^WT [1] (24 h treatment) was 50%. The “T1/2 of LRRK2^WT degradation” value on LRRK2^WT [1] (time course at 1000 nM, WT MEFs) is given as 5.1 h. The “LRRK2 degradation (in words)” value in the assay on LRRK2^WT [2] is given as “moderate LRRK2 degradation; also recorded: partial LRRK2 degradation”. The compound further registered an inhibition constant Ki at VHL of 820 nM.

`CNc1nc(Nc2ccc(C(=O)N3CCN(C[C@H]4CC[C@H](CSC(C)(C)[C@H](NC(=O)C5(F)CC5)C(=O)N5C[C@H](O)CC5C(=O)NCc5ccc(-c6scnc6C)cc5)CC4)CC3)cc2OC)ncc1Cl` (stereo partly drawn) [XL01126, (2S,4R)-1-((R)-3-((((1R,4R)-4-((4-(4-((5-chloro-4-(methylamino)pyrimidin-2-yl)amino)-3-methoxybenzoyl)piperazin-1-yl)methyl)cyclohexyl)methyl)thio)-2-(1-fluorocyclopropane-1-carboxamido)-3-methylbutanoyl)-4-hydroxy-N-(4-(4-methylthiazol-5-yl)benzyl)pyrrolidine-2-carboxamide]: the concentration for a half-maximal effect (EC50) with Rab10 pThr73 (Mus musculus, 4 h treatment) was 15 nM. Also, the “T1/2 of Rab10 dephosphorylation (G2019S)” value in the assay with Rab10 pThr73 (setting [4]) was 18 min. At LRRK2^WT [1] (4 h treatment), the half-maximal degradation concentration (DC50) stood at 32 nM, the “Dmax on WT MEFs” value is given as 80-90% and the Dmax amounted to 82%. Further, at LRRK2^WT [1] (time course at 300 nM, WT MEFs), the Dmax at 0.3 µM was determined as 82% and the “T1/2 of LRRK2^WT degradation” value was determined as 1.2 h. In the assay on LRRK2^WT [2], the “LRRK2 degradation (in words)” value is reported as “almost complete LRRK2 degradation”. In addition, in the assay on LRRK2^WT [2] (pretreatment with VH101, MLN4924, MG132, WT and LRRK2^G2019S MEFs), the “mechanism of induced LRRK2 degradation (in words)” value is “dependent on the proteasome pathway”. In addition, the Ki on VHL is 908 to 5950 nM.

Regarding `CNc1nc(Nc2ccc(C(=O)N3CCN(C[C@H]4CC[C@@H](CSC(C)(C)[C@H](NC(=O)C5(F)CC5)C(=O)N5C[C@H](O)CC5C(=O)NCc5ccc(-c6scnc6C)cc5)CC4)CC3)cc2OC)ncc1Cl` (stereo partly shown) [XL01134], the inhibition at 1 µM with Rab10 pThr73 (setting [3]) fell in the range of 20 to 100%. Further, in the assay with Rab10 pThr73 (Mus musculus, 1 μM/24 h treatment), the inhibition at 1 µM lay in the range of 10 to 100%. Also, in the assay on Rab10 pThr73 (Mus musculus, 4 h treatment), the concentration giving a half-maximal response (EC50) was 12 nM. The same compound showed a Dmax at 0.3 µM in the assay on Rab10 pThr73 (Mus musculus, time course at 300 nM, LRRK2^G2019S MEFs) of 87%. For the same compound, the “T1/2 of Rab10 dephosphorylation (G2019S)” value with Rab10 pThr73 (setting [4]) came to 18 min. At LRRK2^WT [1] (4 h treatment), the half-maximal degradation concentration (DC50) worked out at 32 nM, the “Dmax on WT MEFs” value is reported as 58% and the Dmax amounted to 59%. Also, the “T1/2 of LRRK2^WT degradation” value on LRRK2^WT [1] (time course at 300 nM, WT MEFs) came out at 2.7 h. Further, the “LRRK2 degradation (in words)” value in the assay on LRRK2^WT [2] is on record as “hook effect”. The same compound registered a Ki on VHL of 160 nM.
